How the values were obtained:
primary CLL samples = experiment: TMT-tagging and mass-spectrometry profiling of relative protein abundance after compound exposure; format: cell-based, human
Description: Data import: Relative abundance (RA) data was imported into the R statistical programming environment v.3.1.2. Proteins with less than one spectral count in any of the three MS runs for each case scenario were filtered out and relative abundance was scale normalized to the same median by using normalizeBetweenArrays( ) function implemented in the limma package for Bioconductor (see Yang et al., Nucleic Acids Research, 30(4), e15 (2002)).
Comparative analysis: RA scores were log 2-transformed to perform direct comparison of compounds exposure versus DMSO control and a paired moderated t-test (see Smyth, Statistical Applications in Genetics and Molecular Biology, 3(1), article 3 (2004)) was performed by using lmfit( ) and eBayes( ) functions form limma package to test differential relative abundance between experimental conditions. For differential analysis across cases, the log-2 fold changes of replicates for two of the case scenarios were considered.
Linear regression analysis: Linear regression was modeled by using lm( ) function from the stats package. This function provided the correlation coefficients as well as the linear fitted model. Data were assessed for outliers detection within the linear model via the Studentized residuals method (implemented in outlierTest( ) function from car package) and deemed significant if their q-values were under a threshold of 0.05 (5%).
The proteins subjected to the analysis were those with more than one spectral count matched in three MS runs representing each case scenario. A total of 6114, 6070, 5982 and 5382 proteins were retained for each case scenario. Differential expression analysis was applied to the high and consistent coverage of 4594 proteins quantified across all case scenarios. FIGS. 2A-2D show distribution of normalized relative abundances for each replicate of the four case scenarios (Cases B1-B4). The standard deviation of each replicate is represented as a stair-plot line at the bottom of the boxplot. FIGS. 3A-3D show heatmaps representing correlations of log 2 fold-changes of protein levels post compound treatment as compared with DMSO across conditions for all case scenarios. Low correlation of log 2 fold-changes at 6 hours may be due to the alteration of a small subset of proteins at an early time point without strong general effects across the proteome. Stronger correlations at 24 hours can be linked to a higher proportion of proteins perturbed reflecting downstream changes upon compound exposure.

[1] = test system: samples from CLL patients; experiment: in vitro proliferation assays on samples from four groups of CLL patients; format: cell-based, human
Description: The samples used in this study were from four groups of CLL patients.

CLL cell lines = experiment: Thymidine incorporation assay (cell proliferation); format: cell-based
Procedure: After four days, cells were diluted 1:7 with fresh media, containing the same concentration of treatment compound. Three days later, ^3H-thymidine was added to label proliferating cells for 6-7 hours. Cells were then harvested onto filter plates for counting on a scintillation counter.

[2] = FIG. 5 heatmap, 10 μM, 24 hours, vs DMSO

**Q.** Which results are given for `Nc1cccc2c1CN(C1CCC(=O)NC1=O)C2=O` (centres unmarked) [lenalidomide, 1-oxo-2-(2,6-dioxopiperidin-3-yl)-4-aminoisoindoline, reference compound]?
**A.** protein abundance levels of SELL, SNX20 and KLF13 upon exposure (primary CLL samples; 10 μM, 24 hours): not affected or slightly increased; GZMB protein expression level upon exposure (primary CLL samples; Case B1): increased; level of WIZ (widely-interspaced zinc-finger) upon exposure (primary CLL samples; Case B1): increased; GZMB protein expression level upon exposure (primary CLL samples; Case B4): decreased; levels of Group 4 proteins (6 proteins including IKZF3 and a second IKZF1 isoform) upon exposure (primary CLL samples; [2]): mild effects; protein abundance levels of Group 3 proteins (SMNX20, SELL, KLF13, WIZ, IKZF1, NFKBIE, TCF7 and IRF8) upon exposure (primary CLL samples; [2]): do not change or increase; effect on cell proliferation ([1]; samples from the fourth group of patients (Case B4)): neither Compound A nor lenalidomide had any effect on cell proliferation; effect on cell proliferation ([1]; samples from the third group of patients (Case B3)): no effect on cell proliferation; responsiveness of cell lines to treatment (CLL cell lines; Bucket #1 (EHEB and I83-E95)): responsive to both compounds; responsiveness of cell lines to treatment (CLL cell lines; Bucket #2 (Mec2, CII, and CI)): responsive to both compounds; responsiveness of cell lines to treatment (CLL cell lines; Bucket #4 (HG3)): not responsive to either Compound A or lenalidomide

Source: patent US20170038387A1, “METHODS FOR TREATING CHRONIC LYMPHOCYTIC LEUKEMIA AND THE USE OF BIOMARKERS AS A PREDICTOR OF CLINICAL SENSITIVITY TO IMMUNOMODULATORY THERAPIES” (Celgene Corporation, priority 2015, published 2017)
